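Five compound concentrations were applied to cells in 96-well plates for 48 hours; endpoints were derived by simple linear interpolation of the resulting dose-response curve. GI50: concentration for 50% inhibition of growth.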 Calls of active or inactive are those of the source. Cut-off read from the data, not from the text of the source: active = GI50 up to about 1.1 µM and inactive = higher. Residues, ends and D or L forms follow the SMILES beside them. *: point of attachment. Cbz = O=C(OCc1ccccc1)*
How the values were obtained:
Test in all cases: inhibition of tumour cell growth, NCI panel, 48 h
SK-OV-3 = test system: SK-OV-3
OVCAR-8 = test system: OVCAR-8
UO-31 = test system: UO-31
MOLT-4 = test system: MOLT-4
MDA-N = test system: MDA-N
SK-MEL-5 = test system: SK-MEL-5
COLO 205 = test system: COLO 205
NCI-H460 = test system: NCI-H460
HL-60 = test system: HL-60
786-0 = test system: 786-0
KM12 = test system: KM12
HCT-116 = test system: HCT-116
ACHN = test system: ACHN
HCC 2998 = test system: HCC 2998
A549 = test system: A549
A498 = test system: A498
TK-10 = test system: TK-10
SW-620 = test system: SW-620
HT-29 = test system: HT-29
CAKI-1 = test system: CAKI-1
PC-3 = test system: PC-3
NCI-H226 = test system: NCI-H226
SF-268 = test system: SF-268
OVCAR-3 = test system: OVCAR-3
HOP-62 = test system: HOP-62
SK-MEL-2 = test system: SK-MEL-2
RXF 393 = test system: RXF 393
LOX IMVI = test system: LOX IMVI
OVCAR-4 = test system: OVCAR-4
NCI/ADR-RES = test system: NCI/ADR-RES
U-251 = test system: U-251
MDA-MB-231 = test system: MDA-MB-231
Hs-578T = test system: Hs-578T
HOP-92 = test system: HOP-92
MCF7 = test system: MCF7
BT-549 = test system: BT-549
UACC-62 = test system: UACC-62
IGROV-1 = test system: IGROV-1
OVCAR-5 = test system: OVCAR-5
DU-145 = test system: DU-145
UACC-257 = test system: UACC-257
SF-295 = test system: SF-295
NCI-H522 = test system: NCI-H522
CCRF-CEM = test system: CCRF-CEM
K562 = test system: K562
NCI-H23 = test system: NCI-H23
SNB-75 = test system: SNB-75
HCT-15 = test system: HCT-15
M14 = test system: M14
SK-MEL-28 = test system: SK-MEL-28
MDA-MB-435 = test system: MDA-MB-435
EKVX = test system: EKVX
RPMI-8226 = test system: RPMI-8226
SNB-19 = test system: SNB-19
SN12C = test system: SN12C
T47D = test system: T47D
SF-539 = test system: SF-539
SR = test system: SR
Malme-3M = test system: Malme-3M

Measured: GI50

COc1cc(NS(C)(=O)=O)ccc1N1Cc2c[nH]c3ccc4nc(C)cc1c4c23
> 100 µM: HCT-15
inactive: SK-OV-3 41.6 µM | OVCAR-8 33 µM | UO-31 > 100 µM | MOLT-4 48.5 µM | MDA-N 19.6 µM | SK-MEL-5 97.7 µM | COLO 205 > 100 µM | NCI-H460 86.1 µM | HL-60 91.4 µM | 786-0 20.7 µM | KM12 > 100 µM | HCT-116 62.8 µM | ACHN > 100 µM | HCC 2998 > 100 µM | A549 62.5 µM | A498 > 100 µM | TK-10 > 100 µM | SW-620 > 100 µM | HT-29 > 100 µM | CAKI-1 26.4 µM | PC-3 > 100 µM | NCI-H226 38.8 µM | SF-268 22.7 µM | OVCAR-3 31 µM | HOP-62 25.9 µM | SK-MEL-2 74 µM | RXF 393 32 µM | LOX IMVI > 100 µM | OVCAR-4 49.9 µM | NCI/ADR-RES > 100 µM | U-251 32.3 µM | MDA-MB-231 64 µM | Hs-578T 40.6 µM | HOP-92 24.9 µM | MCF7 52.6 µM | BT-549 > 100 µM | UACC-62 72.3 µM | IGROV-1 33.3 µM | OVCAR-5 > 100 µM | DU-145 > 100 µM | UACC-257 > 100 µM | SF-295 54.8 µM | NCI-H522 26.2 µM | CCRF-CEM 52.1 µM | K562 26.5 µM | NCI-H23 88.9 µM | SNB-75 19.7 µM | M14 > 100 µM | SK-MEL-28 35.5 µM | MDA-MB-435 17.5 µM | EKVX 67.5 µM | RPMI-8226 31.5 µM | SNB-19 18.7 µM

Cc1ccccc1C1CC(=O)CC(c2ccccc2C)C12C(=O)NC(=S)NC2=O (stereo unspecified)
inactive: SK-OV-3 37.2 µM | UO-31 17.9 µM | MOLT-4 42.4 µM | SN12C 26.4 µM | T47D 42.1 µM | MDA-N 23.6 µM | SK-MEL-5 17.2 µM | COLO 205 19.5 µM | NCI-H460 19.4 µM | HL-60 21 µM | SF-539 20.9 µM | 786-0 34.9 µM | KM12 22.1 µM | HCT-116 20.5 µM | ACHN 18.4 µM | HCC 2998 9.64 µM | A549 29.5 µM | A498 22.9 µM | TK-10 39.4 µM | SW-620 28.5 µM | HT-29 22.3 µM | CAKI-1 58.2 µM | SR 37.2 µM | PC-3 22.3 µM | NCI-H226 20 µM | Malme-3M 25.6 µM | SF-268 32.7 µM | OVCAR-3 29 µM | HOP-62 27.5 µM | SK-MEL-2 13.4 µM | RXF 393 19.6 µM | LOX IMVI 17.2 µM | OVCAR-4 37.5 µM | NCI/ADR-RES 30.3 µM | U-251 30.7 µM | MDA-MB-231 31.3 µM | Hs-578T 29.1 µM | HOP-92 26.1 µM | MCF7 32 µM | UACC-62 18.7 µM | OVCAR-5 50.1 µM | DU-145 41.7 µM | UACC-257 22 µM | SF-295 24.8 µM | CCRF-CEM 25 µM | K562 39.5 µM | NCI-H23 35.2 µM | SNB-75 20.8 µM | M14 24.3 µM | SK-MEL-28 20.2 µM | MDA-MB-435 20 µM | EKVX 47.2 µM | RPMI-8226 12.6 µM | SNB-19 43.4 µM
20.7 µM: HCT-15

COc1c(C)c(C/C=C(\C)CCCCO)c(OC)c(OC)c1OC
active: CAKI-1 0.112 µM
> 100 µM: HCT-15
inactive: SK-OV-3 > 100 µM | OVCAR-8 > 100 µM | UO-31 > 100 µM | MOLT-4 73.6 µM | SN12C 28.7 µM | MDA-N > 100 µM | SK-MEL-5 88.7 µM | COLO 205 > 100 µM | NCI-H460 18 µM | SF-539 > 100 µM | 786-0 > 100 µM | KM12 19.1 µM | HCT-116 > 100 µM | ACHN > 100 µM | A549 23.7 µM | TK-10 > 100 µM | SW-620 > 100 µM | HT-29 > 100 µM | SR 95.7 µM | PC-3 > 100 µM | SF-268 > 100 µM | OVCAR-3 > 100 µM | HOP-62 > 100 µM | SK-MEL-2 > 100 µM | RXF 393 > 100 µM | LOX IMVI 25.5 µM | OVCAR-4 > 100 µM | NCI/ADR-RES > 100 µM | U-251 > 100 µM | MDA-MB-231 > 100 µM | Hs-578T > 100 µM | HOP-92 > 100 µM | MCF7 > 100 µM | BT-549 > 100 µM | UACC-62 > 100 µM | IGROV-1 45.2 µM | OVCAR-5 > 100 µM | DU-145 > 100 µM | UACC-257 > 100 µM | SF-295 48.6 µM | NCI-H522 > 100 µM | CCRF-CEM 45.6 µM | K562 24.4 µM | NCI-H23 > 100 µM | SNB-75 > 100 µM | M14 > 100 µM | MDA-MB-435 > 100 µM | EKVX > 100 µM | RPMI-8226 10.3 µM | SNB-19 > 100 µM

O=C(c1ccc2ccccc2c1)C1S(=O)(=O)OCCOS1(=O)=O
> 100 µM: HCT-15
inactive: OVCAR-8 > 100 µM | UO-31 > 100 µM | MOLT-4 > 100 µM | SN12C > 100 µM | MDA-N > 100 µM | SK-MEL-5 > 100 µM | COLO 205 > 100 µM | NCI-H460 > 100 µM | HL-60 > 100 µM | 786-0 > 100 µM | KM12 > 100 µM | HCT-116 > 100 µM | ACHN > 100 µM | HCC 2998 > 100 µM | A549 > 100 µM | TK-10 > 100 µM | HT-29 > 100 µM | CAKI-1 > 100 µM | SR > 100 µM | PC-3 > 100 µM | Malme-3M > 100 µM | OVCAR-3 > 100 µM | HOP-62 > 100 µM | SK-MEL-2 > 100 µM | LOX IMVI > 100 µM | OVCAR-4 > 100 µM | NCI/ADR-RES > 100 µM | U-251 > 100 µM | MCF7 > 100 µM | BT-549 > 100 µM | OVCAR-5 > 100 µM | DU-145 > 100 µM | UACC-257 > 100 µM | SF-295 > 100 µM | CCRF-CEM > 100 µM | K562 > 100 µM | NCI-H23 > 100 µM | M14 > 100 µM | SK-MEL-28 > 100 µM | MDA-MB-435 > 100 µM | EKVX > 100 µM | RPMI-8226 > 100 µM | SNB-19 > 100 µM

CCOC(=O)CCC(NC(=O)OCc1ccccc1)C(=O)NC(CCC(=O)OCC)C(=O)OCC (stereo unspecified) (Cbz-Glu(OEt)-Glu(OEt)-OEt; configuration not given here)
inactive: SK-OV-3 > 100 µM | OVCAR-8 > 100 µM | UO-31 > 100 µM | MOLT-4 > 100 µM | SN12C > 100 µM | T47D > 100 µM | MDA-N > 100 µM | SK-MEL-5 > 100 µM | COLO 205 > 100 µM | NCI-H460 > 100 µM | SF-539 > 100 µM | 786-0 > 100 µM | KM12 > 100 µM | HCT-116 > 100 µM | ACHN > 100 µM | HCC 2998 > 100 µM | A549 > 100 µM | A498 > 100 µM | SW-620 > 100 µM | HT-29 > 100 µM | CAKI-1 > 100 µM | SR > 100 µM | PC-3 > 100 µM | NCI-H226 > 100 µM | Malme-3M > 100 µM | SF-268 > 100 µM | OVCAR-3 > 100 µM | HOP-62 > 100 µM | SK-MEL-2 > 100 µM | RXF 393 > 100 µM | LOX IMVI > 100 µM | OVCAR-4 > 100 µM | NCI/ADR-RES > 100 µM | U-251 > 100 µM | MDA-MB-231 > 100 µM | Hs-578T > 100 µM | HOP-92 > 100 µM | MCF7 > 100 µM | UACC-62 > 100 µM | IGROV-1 > 100 µM | OVCAR-5 > 100 µM | DU-145 > 100 µM | UACC-257 > 100 µM | SF-295 > 100 µM | NCI-H522 > 100 µM | CCRF-CEM > 100 µM | K562 > 100 µM | NCI-H23 > 100 µM | SNB-75 > 100 µM | M14 > 100 µM | SK-MEL-28 > 100 µM | MDA-MB-435 > 100 µM | EKVX > 100 µM | RPMI-8226 > 100 µM | SNB-19 > 100 µM
> 100 µM: HCT-15

Source: ChEMBL document CHEMBL1201862, “PubChem BioAssay data set” (2004)
